Patent EP4810052A2, “HCRHR2 SELECTIVE POLYPEPTIDES” (Gubra A/S, priority 2023, dated 2026)
“Also recorded” adds a separate entry of the source. Marks after values point to notes of the source that are not given here. Starred links: 1 amine or outer side, 2 acyl side, 3 side chain; linkers in the order of their positions; H or OH if unused. Non-standard residues stand in square brackets, D forms with d. Residues, ends and D or L forms follow the SMILES beside them. Groups on a side chain read outwards from the residue. *: point of attachment. C20 diacid = O=C(O)CCCCCCCCCCCCCCCCCCC(=O)*; γGlu = O=C(O)[C@H](CCC(=O)[*:2])N[*:1]; NMeI = CC[C@H](C)[C@H](NC)C(=O)O; Nle = CCCC[C@H](N)C(=O)O; AEEA = NCCOCCOCC(=O)O; Aib = CC(C)(N)C(=O)O

Tests used:
[1] = Dynamic Light Scattering (DLS) of peptide oligomerisation/particle formation; assay type: physicochemical; details: average of three replica
Description: Samples were prepared by dissolving 800 nmol of each peptide in 400 µl 50 mM phosphate pH 8.0 to a concentration of 2000 µM (ca 10 mg/ml). After fully dissolution for 2 hours on a rocking table, samples were adjusted to pH 7.5 and filtrated through a 0.2 µm Whatman Anotop filter. Comparators were commercially available liraglutide drug product (Victoza®, Novo Nordisk) pH 8.2, and an aliquot of this drug product adjusted to pH 6.7. These samples were filtrated through a 0.02 µm Whatman Anotop filter.
Samples were pipetted as triplicate of 30 µl to an Aurora 384 well microtiter plate, which was centrifuged for 2 minutes at 2200 rpm and then sealed with a Thermo sealing tape 235307. DLS measurements were done in a Wyatt DynaPro platereader III with the following parameters:
The microtiter plate was incubated in a Grant-bio Thermo Shaker PHMP-4 at 40°C with 700 rpm continuous shaking before subsequent DLS measurements. Data analysis was done using Wyatt Dynamics software ver. 7.10.1.21.
Samples were prepared and measured as described in procedure. The hydrodynamic radii (Rh) and associated polydispersity (PD) resulting from cumulant analysis (assuming one species) are shown in the Table 8 as averages of three replica. T0 indicates the measurement at time zero after sample preparation; T5 indicates the measurements of five days of incubation as described above.

mCRHR2 = target: T1, mCRHR2 (Mus musculus, UniProt Q60748); experiment: cAMP potency, transiently transfected CHO-K1 cells, mCRHR2; assay type: cell-based; details: transiently transfected CHO-K1, average n=3; read-out: Transient cell system EC50 (nM) mCRH R2
T1 construct: DYK (FLAG); host or cells: CHO-K1, transiently transfected
T1 sequence (Q60748 1-431 isoform Q60748-2): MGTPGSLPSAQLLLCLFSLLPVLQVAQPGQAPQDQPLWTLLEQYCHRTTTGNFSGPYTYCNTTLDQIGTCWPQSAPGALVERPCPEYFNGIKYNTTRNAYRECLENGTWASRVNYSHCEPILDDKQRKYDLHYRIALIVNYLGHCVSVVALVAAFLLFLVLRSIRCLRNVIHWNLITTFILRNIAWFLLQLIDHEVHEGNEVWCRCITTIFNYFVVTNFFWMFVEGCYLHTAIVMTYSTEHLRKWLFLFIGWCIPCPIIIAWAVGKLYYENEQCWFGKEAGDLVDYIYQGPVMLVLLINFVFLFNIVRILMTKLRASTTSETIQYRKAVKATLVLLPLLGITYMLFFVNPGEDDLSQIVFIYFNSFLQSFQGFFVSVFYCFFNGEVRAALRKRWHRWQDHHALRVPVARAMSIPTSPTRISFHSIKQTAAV
Description: Selected peptides were tested for potency on different species (mouse, rat, porcine) using transiently transfected CHO-K1 cells using the general procedure.

[2] = Body mass and body fat content in mouse model of diet-induced obesity (DIO); assay type: in vivo; details: DIO mice; for relative body weight: 28 days, compared to vehicle; for Blood HbA1c / M. Gastrocnemius / M. Soleus / Body weight at termination / Fat mass change from baseline / Lean mass change from baseline / Relative body weight change at termination: Table 17 study; for Body weight at termination / Fat mass change from baseline / Lean mass change from baseline / Relative body weight change at termination: ± SEM
Description: SEQ ID NO: 3, SEQ ID NO: 6, SEQ ID NO: 238, SEQ ID NO: 16 and SEQ ID NO: 215 were assessed for their ability to reduce body mass and body fat content in a mouse model of diet-induced obesity (DIO).
Male C57BL/6JRj mice were obtained from JanVier (JanVier Labs, France) at 5 weeks of age. The animals were group-housed during obesity induction and then single housed 2 weeks prior to study start. They were housed under a 12/12 h dark-light cycle, light off at 3 PM. Room temperature was controlled to 22°C ± 1°C, with 60 % ± 20% humidity. For 22-23 weeks prior to treatment start and throughout the study, the animals had ad libitum access to high-fat diet (60% kcal fat, D12492, Research Diets) and tap water.
The animals were randomized according to lean mass (EchoMRI) and body weight. Animals were dosed subcutaneously […] for 30-32 days. In study 1, the animals were dosed with vehicle or SEQ ID NO: 3 (10, 30, 60 or 100 nmol/kg). In study 2, the animals were dosed with vehicle or SEQ ID NO: 6 (10 or 30 nmol/kg), SEQ ID NO: 238 (10 or 30 nmol/kg), SEQ ID NO: 16 (10 or 30 nmol/kg), SEQ ID NO: 215 (10 or 30 nmol/kg) or SEQ ID NO: 3 (30 nmol/kg).
Body weight and food intake were recorded daily until day 28 and body composition evaluated on day 26 using EchoMRI. At termination, blood for HbA1c analyses were collected and M. gastrocnemius and M. soleus were weighed.
Statistical significance was evaluated using One-way analysis of variance with Dunnett's multiple comparison test. P < 0.05 was considered statistically significant.

[3] = Size exclusion chromatography for high molecular weight products (HMWP); assay type: physicochemical; details: for HMWP formation (SEC analysis) T14-T0 (%): 14 days; for HMWP formation (SEC analysis) T28-T0 (%): 28 days
Description: Dissolved samples were incubated for at least 2 h at room temperature on a rocking table. The main peak purity at time zero (T0) was determined using reversed phase chromatography. The samples were incubated at 40°C for 14 days (T14) and 28 days (T28). The samples were analyzed with reversed phase chromatography and size exclusion chromatography.
Size exclusion chromatography (SEC) was used as an analysis for the formation of high molecular weight products (HMWP, covalent dimers, trimers etc.,). SEC analyses was performed on Thermo Dionex Ultimate UHPLC system with UV detection at 215 nm) equipped with a SEC column (Waters BEH 125Å, 1.7 µm, 300mm x 4.6). Analysis was performed by isocratic elution using 60% buffer B (0.1% TFA in 5:95 H2O: acetonitrile) in buffer A (0.1% TFA in 95:5 H2O: acetonitrile) at a column temperature of 60° C over 20 min. Flowrate was 0.3 mL/min.
Chromatograms were integrated as HMWP (all peaks eluting before the main peak), main peak (assuming this is monomeric peptide) and if relevant LMWP (low molecular weight products, all peaks eluting after main peak). The amount of HMWP was reported as area relative to total area in percent.

[4] = T0, time zero after sample preparation
[5] = T5, five days incubation at 40°C with continuous shaking

Row | Structure (SMILES) | PD (%) [1, 4] [%] | Rh (nm) [1, 4] [nm] | PD (%) [1, 5] [%] | Rh (nm) [1, 5] [nm] | EC50 (mCRHR2) [nM] | relative body weight [2] | Blood HbA1c ([2]; 10 nmol/kg) [%] | M. Gastrocnemius ([2]; 10 nmol/kg) | M. Soleus ([2]; 10 nmol/kg) [g] | Body weight at termination ([2]; 10 nmol/kg) [g] | Fat mass change from baseline ([2]; 10 nmol/kg) [g] | Lean mass change from baseline ([2]; 10 nmol/kg) [g] | Relative body weight change at termination ([2]; 10 nmol/kg) [%] | Blood HbA1c ([2]; 30 nmol/kg) [%] | M. Gastrocnemius ([2]; 30 nmol/kg) [g] | M. Soleus ([2]; 30 nmol/kg) [g] | Body weight at termination ([2]; 30 nmol/kg) [g] | Fat mass change from baseline ([2]; 30 nmol/kg) [g] | Lean mass change from baseline ([2]; 30 nmol/kg) [g] | Relative body weight change at termination ([2]; 30 nmol/kg) [%] | further results
1 | CC[C@H](C)[C@H](NC)C(=O)N[C@H](C(=O)N[C@@H](CC(C)C)C(=O)N[C@@H](CO)C(=O)N[C@@H](CC(C)C)C(=O)N[C@@H](CC(=O)O)C(=O)N[C@H](C(=O)N1CCC[C@H]1C(=O)N[C@H](C(=O)NCC(=O)N[C@@H](CC(C)C)C(=O)N[C@@H](CC(C)C)C(=O)N[C@@H](CCC(N)=O)C(=O)N[C@H](C(=O)N[C@@H](CC(C)C)C(=O)N[C@@H](CC(C)C)C(=O)N[C@@H](CCC(=O)O)C(=O)N[C@@H](CCC(N)=O)C(=O)N[C@@H](C)C(=O)N[C@@H](CCCNC(=N)N)C(=O)N[C@@H](C)C(=O)N[C@@H](CCCNC(=N)N)C(=O)N[C@@H](C)C(=O)N[C@@H](C)C(=O)N[C@@H](CCCNC(=N)N)C(=O)N[C@@H](CCC(=O)O)C(=O)N[C@@H](CCC(N)=O)C(=O)N[C@@H](C)C(=O)N[C@@H](CCCCNC(=O)COCCOCCNC(=O)COCCOCCNC(=O)CC[C@H](NC(=O)CC[C@H](NC(=O)CCCCCCCCCCCCCCCCCCC(=O)O)C(=O)O)C(=O)O)C(=O)N[C@H](C(=O)N[C@@H](CC(N)=O)C(=O)NC(C)(C)C(=O)N[C@@H](CCC(=O)O)C(=O)N[C@H](C(=O)N[C@@H](CC(C)C)C(=O)N[C@@H](C)C(=O)N[C@@H](CCC(=O)O)C(=O)N[C@H](C(N)=O)C(C)C)[C@@H](C)CC)[C@@H](C)O)[C@@H](C)CC)[C@@H](C)CC)C(C)C)C(C)C [SEQ ID NO: 16] (H-[NMeI]VLSLDVPIGLLQILLEQARARAAREQAK([AEEA-AEEA-γGlu-γGlu-C20 diacid])TN[Aib]EILAEV-NH2) | 10.5 | 4.7 | 11.6 | 4.7 | 0.0049 | reduce body weight; also recorded: prolonged dose-dependent reduction | 4.4 ± 0.1 | 0.19 ± 0.003 g | 0.013 ± 0.0004 | 44 ± 1.1 | -5.6 ± 0.5 | 0.6 ± 0.3 | 91.1 ± 1.2 | 4.1 ± 0.1 | 0.19 ± 0.002 | 0.013 ± 0.0009 | 38.3 ± 0.9 | -10.5 ± 0.6 | -0.6 ± 0.3 | 79.9 ± 1.4 | HMWP formation (SEC analysis) T14-T0 (%) ([3]; pH 7.0, 40°C): -0.3%; HMWP formation (SEC analysis) T28-T0 (%) ([3]; pH 7.0, 40°C): -0.3%; HMWP formation (SEC analysis) T14-T0 (%) ([3]; pH 7.5, 40°C): 0.0%; HMWP formation (SEC analysis) T28-T0 (%) ([3]; pH 7.5, 40°C): 0.0%; HMWP formation (SEC analysis) T14-T0 (%) ([3]; pH 8.0, 40°C): -0.2%; HMWP formation (SEC analysis) T28-T0 (%) ([3]; pH 8.0, 40°C): -0.3%
2 | CCCC[C@H](NC(=O)[C@@H](NC(=O)[C@H](CCC(=O)O)NC(=O)C(C)(C)NC(=O)[C@H](CC(N)=O)NC(=O)[C@@H](NC(=O)[C@H](CCCCNC(=O)COCCOCCNC(=O)COCCOCCNC(=O)CC[C@H](NC(=O)CC[C@H](NC(=O)CCCCCCCCCCCCCCCCCCC(=O)O)C(=O)O)C(=O)O)NC(=O)[C@H](C)NC(=O)[C@H](CCC(N)=O)NC(=O)[C@H](CCC(=O)O)NC(=O)[C@H](CCCNC(=N)N)NC(=O)[C@H](C)NC(=O)[C@H](C)NC(=O)[C@H](CCCNC(=N)N)NC(=O)[C@H](C)NC(=O)[C@H](CCCNC(=N)N)NC(=O)[C@H](C)NC(=O)[C@H](CCC(N)=O)NC(=O)[C@H](CO)NC(=O)[C@H](CC(C)C)NC(=O)[C@H](CC(C)C)NC(=O)[C@@H](NC(=O)[C@H](CCC(N)=O)NC(=O)[C@H](CC(C)C)NC(=O)[C@H](CC(C)C)NC(=O)CNC(=O)[C@@H](NC(=O)[C@@H]1CCCN1C(=O)[C@@H](NC(=O)[C@H](CC(=O)O)NC(=O)[C@H](CC(C)C)NC(=O)[C@H](CO)NC(=O)[C@H](CC(C)C)NC(=O)[C@@H](NC(=O)[C@@H](NC)[C@@H](C)CC)C(C)C)C(C)C)[C@@H](C)CC)[C@@H](C)CC)[C@@H](C)O)[C@@H](C)CC)C(=O)N[C@@H](C)C(=O)N[C@@H](CCC(=O)O)C(=O)N[C@H](C(N)=O)C(C)C [SEQ ID NO: 215] (H-[NMeI]VLSLDVPIGLLQILLSQARARAAREQAK([AEEA-AEEA-γGlu-γGlu-C20 diacid])TN[Aib]EI[Nle]AEV-NH2) | 10.8 | 5.6 | 15.1 | 5.9 | 0.004 | prolonged dose-dependent reduction | 4.3 ± 0.1 | 0.19 ± 0.002* ** g | 0.012 ± 0.0005 | 40.5 ± 1.2 | -8.7 ± 0.5 | 0.1 ± 0.5 | 85.5 ± 1.3 | 4.4 ± 0.03 | 0.18 ± 0.003 | 0.012 ± 0.0005 | 38.9 ± 1.1 | -9.9 ± 0.7 | -0.5 ± 0.3 | 81.8 ± 1.9 | body weight loss compared to SEQ ID NO: 16 ([2]; 10 nmol/kg, Fig. 5): relative higher body weight loss; relative body weight ([2]; listed as 215): reduce body weight; HMWP formation (SEC analysis) T14-T0 (%) ([3]; pH 7.0, 40°C): -0.3%; HMWP formation (SEC analysis) T28-T0 (%) ([3]; pH 7.0, 40°C): -0.3%; HMWP formation (SEC analysis) T14-T0 (%) ([3]; pH 7.5, 40°C): 0.1%; HMWP formation (SEC analysis) T28-T0 (%) ([3]; pH 7.5, 40°C): 0.3%; HMWP formation (SEC analysis) T14-T0 (%) ([3]; pH 8.0, 40°C): 0.0%; HMWP formation (SEC analysis) T28-T0 (%) ([3]; pH 8.0, 40°C): -0.1%
